According to patent US20090035758A1, “Method of Measurement of Micronucleated Erythrocyte Populations” (BECKMAN COULTER, INC., priority 2007, published 2009):

System: micronucleated reticulocytes (MNPCE) in mouse peripheral blood
Conditions: in vivo, 50 mg/kg, 24 h
Method: 200 to 300 μl of a peripheral blood sample was collected from a mouse using orbital veinipuncture into a test tube containing heparin. The sample was kept at room temperature for analysis.
10 μl of the anticoagulated blood sample was diluted with 290 μl of the isotonic diluent of Example 1 in a test tube. 10 μl of anti CD71-FITC monoclonal antibody at saturating concentration was added into the diluted blood, and the test tube was vortexed and then incubated at room temperature for 30 minutes. 20 μl of the diluted sample containing anti CD71-FITC antibody was taken into a second test tube, and 400 μl of the permeation reagent of Example 1 was added and vortexed immediately. The formed permeation sample mixture was incubated at room temperature for 10 minutes. […]
The final sample mixture was analyzed on a FC500 MCL cytometer (Beckman Coulter, Inc., Fullerton, Calif.). […]
Both FL1 and FL4 were in a logarithmic scale. FL1 and FL4 were the fluorescent signals of the final sample mixture detected at 525 nm and 675 nm, respectively. […]
A mouse was treated with methyl methane sulfonate with a dosage of 50 mg/Kg 24 hours prior to the blood collection. The peripheral blood was collected and processed as described in Example 2, and the final sample mixture was analyzed on the same FC500 MCL cytometer with the identical instrument setting.

With `COS(C)(=O)=O` [methyl methane sulfonate] as the compound, how does the “micronucleated reticulocytes (percentage of reticulocytes containing micronuclei)” value read?
The value was 1.30%.
